Here are results for 17 compounds from paper PMC5859250, “Contribution of transformation products towards the total herbicide toxicity to tropical marine organisms” (Scientific Reports, 2018).

For one series, the system named is Dunaliella sp. Nature of the series: Microalgal PAM fluorometry assay, inhibition of ∆F/Fm′ (24 h, 96-well plate). In kind it is cell-based. The note with it: 24 h; for IC20: read-out: IC20 parent (inhibition of ∆F/Fm′ by 20%); for IC50: read-out: IC50 parent (inhibition of ∆F/Fm′ by 50%); for IC10 parent (inhibition of ∆F/Fm′ by 10%): Dunaliella sp., pure compound. The text has this: (§1) Microalgae play a critical role in the marine food web and have been used in a number of sensitive assays for the assessment of toxicity of both herbicides and their transformation products[13],[16],[60]. High throughput 96 well plate designs allow for increased replication and a wide range of concentrations especially when paired with pulse amplitude modulation (PAM) fluorometry[50],[61]. PAM fluorometry measures chlorophyll fluorescence and can be used to calculate inhibitions of effective quantum yield ∆F/Fm′, which is proportional to reduced photosynthetic efficiency[62] and growth in microalgae[63] and can be plotted against toxicant concentrations to derive concentrations that inhibit ∆F/Fm′ by 10, 20 and 50% (IC10, IC20 and IC50). In the present study the green algae (Dunaliella sp.) and coral symbiont (Symbiodinium sp.) were exposed to herbicides and aged herbicide solutions for 24 h in a 96-well plate format. A Maxi-Imaging-PAM (I-PAM) (Walz, GmbH Germany) was used to measure inhibition of ∆F/Fm′ using settings provided previously[36] and below.
(§2) Symbiodinium cells were isolated from coral by air blasting branches of Acropora tenuis colonies collected (collected under the permit G10-33440.1) at 2–5 m depth in Nelly Bay, Magnetic Island, GBR[36]. Symbiodinium cells were inoculated into sterile IMK growing media, the culture purified, DNA extracted, and Clade C1 identified as published previously[64],[65]. Cultures were maintained at 26 °C, 60 µE PAR, 14:10 light:dark photoperiod inside environmental chambers (Steridium e500). The Dunaliella sp. (CS-353) (Chlorophyceae) was obtained from the CSIRO Collection of Living Microalgae (CCLM). The algae was subcultured and grown in F2 media. For the toxicology assays, an exponentially growing culture was employed[63] and density adjusted by hemocytometry under 10× magnification. Day 7 sub-cultures were used throughout the experiment.
(§3) Herbicide solutions were delivered into each treatment plate using a Perkin Elmer Janus liquid handling system. Each well of the black 96-well plates (Perkin Elmer) received 100 µl herbicide solution as well as 100 µl of algal suspension (added via multi-channel pipette) and the solution was gently mixed. […] Each plate included a 3 µg l^−1 positive diuron control (n = 4) to confirm consistent sensitivities among the replicate algal subcultures. Treatments positions were randomised across the plates in duplicate[50],[61],[66]. Symbiodinium culture plates were incubated over a 12:12 h light:dark cycle at 26 °C and 60–70 µmol photons m^−2 s^−1 and Dunaliella sp. Plates incubated at: 26 °C and 130 µmol photons m^−2 s^−1. Microalgae were exposed for 24 h prior to PAM measurements. Samples were subjected to the 50 µmol photons m^−2 s^−1 actinic light for 1 min prior to measurement in the Maxi-IPAM (Actinic light = 1, ML = 10, ML frequency = 8, gain = 2 and damping = 1).
(§4) The model was constrained by applying a lower limit of 0% inhibition and all curves were tested for normality of the residuals and a replicate test was applied to assess the goodness of fit[36]. The probability that ICX values generated by the logistic curves were statistically different between parent and aged herbicide solutions was tested by applying the F test in Graph Pad Prism v6. ICXs were considered different when p < 0.05. Where inhibition data could not be fitted to logistic curves, one-way analysis of variance (ANOVA) was performed to identify treatments which caused significant (p < 0.05) inhibition comparison with control treatments (NCSS v9, Utah, USA). The larval prawn experimental data was arcsine square root transformed prior to statistical analysis.

The test system of the next series is Symbiodinium sp. The description is as above. To be noted: 24 h; for IC20: read-out: IC20 parent (inhibition of ∆F/Fm′ by 20%); for IC50: read-out: IC50 parent (inhibition of ∆F/Fm′ by 50%); for IC10 parent (inhibition of ∆F/Fm′ by 10%): Symbiodinium sp., pure compound. In kind it is cell-based.
From the text: as §1, §2, §3, §4

Series [1] is described as follows: Herbicide degradation in outdoor tanks with coastal seawater and sediment (330 d). The note with it: for Transformation product concentration: in tank of the parent herbicide, measured or estimated. In kind it is physicochemical. The text has this: Photosystem II herbicides/transformation product solutions were produced by adding herbicides to seawater within separate 120 l outdoor fibreglass tanks, in the presence of natural coastal sediments (further details can be found in Mercurio 2016)[36]. […] The tanks used were previously described in Mercurio et al.[8], with treatment water being partially shaded (70%) and exposed to a maximum of 700 µmol photons m^−2s^−1 over the course of the experiment. The application of a natural diurnal light regime and coastal sediment were previously shown to increase the rates of PSII herbicide degradation and represent more natural conditions than those used in standard degradation tests[8],[36]. Evaporation was minimised with loose-fitting clear acrylic lids and the water continuously circulated using Turbelle Nanostream pumps. Prior to every sampling period evaporation losses were replenished with equal volumes of MilliQ water. The average temperature was 25.7 °C with a range of 15.6–36.6 °C over the course of the study. Unfiltered coastal seawater and sediments were collected from the intertidal zone adjacent to the Australian Institute of Marine Science (19°16′S, 147°03′E), Cape Cleveland, QLD. The sediments were prepared one week prior to use by sieving (>2 mm removed) and thorough mixing. Each tank contained 5 kg of sediment. Physical and chemical information on the seawater and sediments used the treatments can be found in SOM Table 1.
The 20 tanks included replicates for control seawater (n = 4) and the PSII herbicides diuron (n = 4), atrazine (n = 3), simazine (n = 3), hexazinone (n = 3), and ametryn (n = 3). Herbicide treatments and replicates were randomized among tanks. The herbicides were purchased from Sigma Aldrich (>95% purity) and were introduced at ~1 mg l^−1 to enable direct chemical and toxicological testing of the herbicide transformation product mixtures without additional concentration steps. […] The same concentration was used in the controls. Sample collection, internal standard addition, and analytical techniques (HPLC-MS/MS using an AB/Sciex API5500Q mass spectrometer equipped with an electrospray interface and coupled to a Shimadzu Prominence HPLC system) were as previously reported[7],[36]. […] Individual replicates were analysed using HPLC/TripleTOF mass spectrometry for possible transformation products as described in Mercurio 2016[36]. Briefly, 0.2 µm-filtered samples were directly injected into an ABSciex API5600+ Triple TOF mass spectrometer (ABSciex, Concord, Ontario, Canada) equipped with an electrospray (TurboV) interface coupled to a Shimadzu Nexera HPLC system (Shimadzu Corp., Kyoto, Japan). Separation was achieved using a 4 micron 50 × 2.0 mm Phenomenex Synergi Fusion RP column (Phenomenex, Torrance, CA) run at 45 °C, and a flow rate of 0.4 mL min^−1 with a linear gradient starting at 8% B for 0.5 minutes, ramped to 100% B in 8 minutes then held at 100% for 2.0 minutes followed by equilibration at 8% B for 2.5 minutes (A = 1% methanol in HPLC grade water, B = 95% methanol in HPLC grade water, both containing 0.1% acetic acid). The mass spectrometer was operated in positive ion SWATH mode. Briefly this mode comprises a TOF scan of 50 millisecond duration followed by small segments of the mass range being transmitted through the quadrupole, fragmented in the collision cell and full TOF mass spectra taken of the transformation products. Data from these experiments was examined using the Masterview software (ABSciex).
Potential transformation products identified using TOF mass spectrometry and other potential transformation products identified from literature were then re-examined by HPLC/ triple quadrupole mass spectrometry using multiple reaction monitoring. Product ions used were as identified from QTOF data or from literature references and parameters such as collision energy optimised by repeated injections of samples for compounds detected. […]

The subject of series [2] is prawn (Penaeus monodon) larvae. Nature of the series: Prawn larvae assay, metamorphosis of nauplii into protozoea (24 h static). The note with it: 24 h; for LOEC, prawn larval metamorphosis / NOEC, prawn larval metamorphosis: vs solvent control, ANOVA p < 0.05, aged solutions as concentration of parent herbicide; for Effect on prawn larval metamorphosis (in words): concentration range tested. Type of series: in vivo. The protocol: The giant tiger prawn (Penaeus monodon) can be found throughout the tropical Indo-Pacific region and can be obtained from aquaculture facilities and has a well-described life cycle. The aim of the larval prawn assay was to determine whether the herbicides and transformation products inhibit early naupliar development. Prawn eggs hatch into their first larval stage (nauplii), typically 12–15 h after spawning. During development the nauplii are lecithotrophic, and over the course of the next 36 h, nauplii pass through 6 sub-stages before metamorphosing into protozoae[67],[68].
Freshly hatched nauplii were harvested by light attraction over 30 min, and washed and aerated for 10 min with seawater, and transported to AIMS in Townsville, Queensland. […] The toxicity assays were performed in incubator shakers (set to 30 °C) under very low light and with gentle shaking to prevent individuals adhering to the side of experimental containers.
The larval stock was gently concentrated via reverse-gravity filtration to a higher density before dispensing 8–10 individuals per 20 ml glass scintillation vials. Additional positive control treatments in the form of 4 concentrations of copper II chloride solution (2 to 900 µg l^−1 Cu), were included for test validation. The static assay was terminated after 24 h and 10% seawater formalin was added as a preservative for later microscopy. Metamorphosis was considered successful when nauplii had developed into protozoea.
as §4

Setting [3] is: day 330, seawater with sediment, outdoor tanks.

Values after ≈ are worked out from the molar mass of the structure shown.

Take `CCNc1nc(Cl)nc(NCC)n1` [Simazine]: in the series on Dunaliella sp., the IC20 worked out at 17 ng/mL (≈ 0.0843 µM) and the IC50 stood at 87 ng/mL (≈ 0.431 µM). In addition, in the series with Symbiodinium sp., the IC20 was determined as 34 ng/mL (≈ 0.169 µM), the IC50 came to 84 ng/mL (≈ 0.417 µM) and the “IC10 parent (inhibition of ∆F/Fm′ by 10%)” value is on record as 21 (19–23) µg l^−1. Moreover, in series [1] (setting [3]), the “% degradation” value turned out to be 63% and the Parent herbicide concentration is 384 µg/L.
Regarding `CSc1nc(N)nc(NC(C)C)n1` [Ametryn desethyl, ametryn desethyl], the Transformation product concentration in series [1] (day 330) was 23 µg/L.
As for `CCNc1nc(NC(C)C)[nH]c(=O)n1` [Atrazine hydroxy, hydroxy atrazine], the Transformation product concentration in series [1] (day 330) was 30 µg/L.
As for `CNc1nc(=O)n(C2CCCCC2)c(=O)n1C` [Hexazinone desmethyl, hexazinone desmethyl], the Transformation product concentration in series [1] (day 330) is 91 µg/L.
On the same count and under the same terms, under `CNC(=O)Nc1ccc(Cl)c(Cl)c1` [DCPMU, 3-(3,4-dichlorophenyl)-1-methylurea] stands 236 µg/L; under `CCNc1nc(N)nc(Cl)n1` [Desethyl simazine, desethyl simazine], 79 µg/L; under `CCNc1nc(NC(C)C)[nH]c(=O)n1` [Ametryn hydroxy, hydroxy ametryn], 188 µg/L.
The same measure, in the same setting: next, hexazinone hydroxy: 5.4 µg/L; simazine amine: 31 µg/L.
In the case of `CN(C)c1nc(=O)n(C2CCCCC2)c(=O)n1C` [Hexazinone], in the series with Dunaliella sp., the IC20 was 10 ng/mL (≈ 0.0396 µM) and the IC50 amounted to 38 ng/mL (≈ 0.151 µM). In the series with Symbiodinium sp., the IC20 was determined as 12 ng/mL (≈ 0.0476 µM), the IC50 came to 45.7 ng/mL (≈ 0.181 µM) and the “IC10 parent (inhibition of ∆F/Fm′ by 10%)” value is 5.3 (4.5–6.7) µg l^−1. Further, in series [2], the “LOEC, prawn larval metamorphosis” value turned out to be 1026 µg/L and the “NOEC, prawn larval metamorphosis” value was 242 µg/L. For the same compound, the “% degradation” value in series [1] (330 d) came out at 58%. Further, the Parent herbicide concentration in series [1] (setting [3]) turned out to be 366 µg/L.
On to `CN(C)C(=O)Nc1ccc(Cl)c(Cl)c1` [Diuron], for which, in the series with Dunaliella sp., the IC20 amounted to 1.74 ng/mL (≈ 0.00746 µM), the IC50 worked out at 4.4 ng/mL (≈ 0.0189 µM) and the “IC10 parent (inhibition of ∆F/Fm′ by 10%)” value is reported as 1.02 (0.94–1.10) µg l^−1. In the series on Symbiodinium sp., the IC20 was 0.68 ng/mL (≈ 0.00292 µM), the IC50 was 1.4 ng/mL (≈ 0.00601 µM) and the “IC10 parent (inhibition of ∆F/Fm′ by 10%)” value was 0.64 (0.57–0.71) µg l^−1. In series [2], the “Effect on prawn larval metamorphosis (in words)” value is “did not affect metamorphosis”; the “LOEC, prawn larval metamorphosis” value is greater than 874 µg/L; the “NOEC, prawn larval metamorphosis” value came out at 874 µg/L. Further, the “LOEC, prawn larval metamorphosis” value in series [2] (listed as diuron) is greater than 874 µg/L. Moreover, in series [1] (setting [3]), the “% degradation” value amounted to 93% and the Parent herbicide concentration amounted to 71 µg/L.
Consider `CCNc1nc(NC(C)C)nc(SC)n1` [Ametryn], for which, in the series on Dunaliella sp., the IC20 came out at 1.23 ng/mL (≈ 0.00541 µM), the IC50 stood at 3.4 ng/mL (≈ 0.015 µM) and the “IC10 parent (inhibition of ∆F/Fm′ by 10%)” value was 0.70 (0.65–0.74) µg l^−1. Besides, in the series on Symbiodinium sp., the IC20 is 0.82 ng/mL (≈ 0.00361 µM), the IC50 was determined as 2.2 ng/mL (≈ 0.00968 µM) and the “IC10 parent (inhibition of ∆F/Fm′ by 10%)” value is on record as 0.47 (0.43–0.51) µg l^−1. Moreover, in series [2], the “Effect on prawn larval metamorphosis (in words)” value is reported as “did not affect metamorphosis”; the “LOEC, prawn larval metamorphosis” value is greater than 517 µg/L; the “NOEC, prawn larval metamorphosis” value is 517 µg/L. The “% degradation” value in series [1] (330 d) came out at 56%. Also, in series [1] (setting [3]), the Parent herbicide concentration stood at 189 µg/L.
Take hexazinone oxy: in series [1] (day 330), the Transformation product concentration is 26 µg/L.
`[Cl][Cu][Cl]` [Copper reference, copper II chloride, reference compound]: in series [2], the “LOEC, prawn larval metamorphosis” value came out at 91 µg/L and the “NOEC, prawn larval metamorphosis” value was found to be 11 µg/L.
Consider `CCNc1nc(O)nc(NCC)n1` [Simazine hydroxy, hydroxy simazine], for which, in series [1] (day 330), the Transformation product concentration is 45 µg/L.
Still for that read-out and setting: next, `NC(=O)Nc1ccc(Cl)c(Cl)c1` [DCPU, 3,4-dichlorophenylurea]: 85 µg/L; `CCNc1nc(N)nc(SC)n1` [Ametryn desisopropyl, ametryn desisopropyl]: “BDL”.
